Experimental data published in US20120184624A1, “Treatment of Alzheimer's Disease” (priority 2010, published 2012).
Where two headings read alike, the source gives them in different places.

Columns and labels:
[1] = system: PP2A-holoenzymes; assay: PP2A activity assay (malachite green), PP2A-holoenzymes immunopurified from HeLa cell lysates; format: biochemical; conditions: 10 nM okadaic acid, 1 hour
Protocol: (§1) Either purified PP2Ac (upstate), cell lysates or PP2A-holoenzymes, which were purified by immunoprecipitation using a PP2A-A-subunit antibody (Millipore), were incubated with or without 10 mM metformin or 10 nM okadaic acid for 1 hour. Afterwards PP2A phosphatase activity was determined using a malachite green assay kit (upstate) following the manufacturer's instructions.

[2] = molecular target: T1, purified PP2Ac (catalytic subunit of PP2A) (Homo sapiens, UniProt P67775); assay: PP2A activity assay (malachite green), purified PP2Ac; format: biochemical; conditions: 10 nM okadaic acid, 1 hour
T1 construct: purchased upstate
Protocol: as §1

[3] = system: tau; format: cell-based, mouse; conditions: for de-phosphorylation of tau at PP2A sensitive sites: increasing concentration of phenformin over 16 h or 1 h
Protocol: (§2) Primary cortical neurons were isolated from brain of wt or transgenic (Mapt^tm1(EGFP)klt Tg(MAPT)8cPdav/J; Jackson Laboratory) embryos at day 14.5. Cortices were collected in DMEM (Lonza) and cells were dissociated by incubation with Trypsin/EDTA for 6.5 min at 37° C. Cells were then diluted in neurobasal medium (Gibco-BRL) containing B27 supplement (Gibco BRL). Cells were plated at a density of 4.0×10^5 onto 0.2 mg/ml poly-D-lysin (Sigma) and 2 μg/ml Laminin (Sigma) coated 12 well plates. Neurons were incubated at 37° C. with 8% CO2. One hour after seeding a complete change of medium was performed. Later on, each 96 hours half volumes of the medium were replaced by fresh medium. After 7 days in culture neurons were treated.
(§3) Cells were incubated with the respective substances as follows: Metformin (Sigma) at final concentrations up to 2.5 mM for 1 to >24 hours, okadaic acid (Sigma) at final concentrations from 1 nM to 10 nM for 4 h, Fostricien (Sigma) at final concentration of 1 μM for 4 h and AICAR (cell signalling) at final concentration of 5 mM for 0.5-16 h. For cell treatment without insulin, medium containing B27+insulin supplement was replaced with medium containing B27-supplement without insulin 24 h before treatment. 3 groups of 2 mice were treated with or without 5 mg/l metformin in the drinking water.
(§4) Cell pellets were homogenized in Magic-Mix (48% UREA, 15 mM Tris-HCL pH 7.5, 8.7% Glycerin, 1% SDS, 0.004% Bromphenolblue, 143 mM Mercaptoethanol), sonicated and boiled for 5 min at 95° C. Proteins were resolved on 8 or 10% SDS gels and blotted onto PVDF-membranes (Roche). Antibodies used in this study were purchased from the following companies: Tau-5 (Biosource), anti-human PHF pSer202 (Thermo scientific), Tau pSer356 (Biosource), Tau pSer262 (Biosource), Tau pSer396 (Sigma), Actin (Sigma), ACC (cell signalling), ACC pSer79 (cell signalling), phospho-S6 ribosomal protein pSer241/244 (cell signalling), p70S6 Kinase (cell signalling), p70S6K pThr421/pSer424 (cell signalling), mTOR (cell signalling), AMPK (cell signallling, AMPK pThr172 (cell singnaling), HRP-anti-rabbit (Amersham), HRP-anti-mouse (Dianova). The resulting bands were quantified using Imagequant5.2. Statistical analyses were performed using SigmaStat software package (v 3.0, SPSS, USA). For timecourse or dose-response studies, data were analyses by one-way ANOVA with post hoc Dunnett's or Bonferonni test to accommodate for multiple comparisons. A Student's t-test was used for two-group comparisons, as appropriate.

[4] = system: ACC; assay: Phosphorylation of the AMPK target ACC (Ser79) in primary cortical neurons; format: cell-based, mouse; conditions: 0.25 mM phenformin, increasing time intervals
Protocol: as §2
as §3, with “3 groups of 2 mice were treated with or without 5 mg/l metformin in the drinking water.” left out
as §4, with “Proteins were resolved on 8 or 10% SDS gels and blotted onto PVDF-membranes (Roche).” left out, “Statistical analyses were performed using SigmaStat software package (v 3.0, SPSS, USA). For timecourse or dose-response studies, data were analyses by one-way ANOVA with post hoc Dunnett's or Bonferonni test to accommodate for multiple comparisons. A Student's t-test was used for two-group comparisons, as appropriate.” left out

[5] = system: p70S6kinase; assay: Phosphorylation of p70S6kinase in primary cortical neurons; format: cell-based, mouse; conditions: 0.25 mM phenformin over increasing time intervals
Protocol: as §2, §3, §4

[6] = increasing concentrations of okadaic acid (1 nM to 10 nM), four hours

T1 sequence (P67775 whole entry): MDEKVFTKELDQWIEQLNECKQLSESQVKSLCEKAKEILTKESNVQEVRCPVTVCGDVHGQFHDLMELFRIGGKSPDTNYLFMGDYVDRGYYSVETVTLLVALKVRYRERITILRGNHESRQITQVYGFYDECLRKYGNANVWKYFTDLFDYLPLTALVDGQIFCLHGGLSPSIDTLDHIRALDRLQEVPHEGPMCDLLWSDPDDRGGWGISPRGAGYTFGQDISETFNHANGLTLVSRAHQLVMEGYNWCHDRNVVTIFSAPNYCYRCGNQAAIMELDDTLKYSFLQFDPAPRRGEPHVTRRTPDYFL

Compound	activity of the immunopurified PP2A protein complex [1]	PP2A activity of purified PP2Ac [2]	phosphorylation of Ser202 ([3]; 10 nM okadaic acid alone, 4 hours)	phosphorylation of Ser202 relative to total tau [3, 6]	phosphorylation of Ser262 relative to total tau [3, 6]	phosphorylation of Ser356 relative to total tau [3, 6]	phosphorylation of Ser396 relative to total tau [3, 6]	ACC phosphorylation (Ser79) [4]	de-phosphorylation of tau at PP2A sensitive sites [3]	de-phosphorylation of tau at PP2A sensitive sites ([3]; listed as Phenformin)	effect on Ser202 phosphorylation with and without okadaic acid pre-treatment ([3]; okadaic acid 10 nM prior to phenformin 0.25 mM, 4 hours)	phosphorylation status of p70S6kinase [5]	phosphorylation status of p70S6kinase ([5]; listed as Phenformin)
C=C1[C@@H](O)[C@@H]2O[C@]3(CC[C@H](/C=C/[C@@H](C)[C@@H]4CC(C)=C[C@@]5(O[C@H](C[C@@](C)(O)C(=O)O)CC[C@H]5O)O4)O3)CC[C@H]2O[C@@H]1[C@@H](O)C[C@H](C)[C@H]1O[C@@]2(CCCCO2)CC[C@H]1C [okadaic acid]	reduced	reduced	increased	increased with the concentration of OA	increased with the concentration of OA	increased with the concentration of OA	did not increase significantly	–	–	–	–	–	–
[H]/N=C(/N)N/C(=N/[H])NCCc1ccccc1 [phenformin, Phenformin]	–	–	–	–	–	–	–	neither metformin (FIG. 4a) nor phenformin (FIG. 12) had an effect	Comparable results	induces de-phosphorylation	inhibition of PP2A blocks the Phenformin effect	promoted de-phosphorylation	decrease of pS6kinase phosphorylation
